Measurements published in ChEMBL document CHEMBL4651402, “Screening of ~5500 FDA-approved drugs and clinical candidates for anti-SARS-CoV-2 activity” (2021).

Key:
SARS-CoV-2 [1] = experiment: microbe, parasite or virus in culture; details: Severe acute respiratory syndrome coronavirus 2, Vero C1008, 48 h
in vitro = details: chlorocebus sabaeus
SARS-CoV-2 [2] = experiment: microbe, parasite or virus in culture; assay type: functional, organism-based, Chlorocebus sabaeus, Vero C1008; details: Severe acute respiratory syndrome coronavirus 2, Vero C1008, 48 h
[3] = Vero E6 (Vero C1008) cells, CC50
[4] = Vero E6 (Vero C1008) cells, pCC50

Compound | IC50 (SARS-CoV-2 [1]) | IC50 (SARS-CoV-2 [1]; read-out: pIC50 (converted)) | CC50 at 48 h (in vitro; [3]) | CC50 at 48 h (in vitro; [4]) | IC50 (SARS-CoV-2 [2]; read-out: IC50) | IC50 (SARS-CoV-2 [2]; read-out: pIC50 (converted)) | CC50 at 48 h (in vitro; vero c1008, CC50) | CC50 at 48 h (in vitro; vero c1008, pCC50)
COc1ccc2c(c1)N(C[C@H](C)CN(C)C)c1ccccc1S2 [LEVOMEPROMAZINE] | 11.8 µM | 11.7 µM | 11.6 µM | 11.5 µM | > 50.1 µM | > 50.1 µM | – | –
Cc1cccc(C)c1NC(=O)CN1CCN(CCCC(c2ccc(F)cc2)c2ccc(F)cc2)CC1 [LIDOFLAZINE] | 9.55 µM | 9.55 µM | 8.41 µM | 8.32 µM | > 100 µM | > 100 µM | – | –
CN1CCC(OC(=O)C(Oc2ccc(Cl)cc2)Oc2ccc(Cl)cc2)CC1 [LIFIBRATE] | > 100 µM | > 100 µM | 38 µM | 38 µM | > 100 µM | > 100 µM | – | –
Cc1cccc(C)c1OCC(=O)N[C@@H](Cc1ccccc1)[C@@H](O)C[C@H](Cc1ccccc1)NC(=O)[C@H](C(C)C)N1CCCNC1=O [LOPINAVIR] | 22.9 µM | 22.9 µM | ~33.7 µM | ~33.9 µM | ~15.7 µM | ~15.5 µM | – | –
C#C[C@]1(O)CC[C@H]2[C@@H]3CCC4=CCCC[C@@H]4[C@H]3CC[C@@]21C [LYNESTRENOL] | > 50.1 µM | > 50.1 µM | 10.5 µM | 10.5 µM | > 50.1 µM | > 50.1 µM | – | –
c1ccc2c(c1)Sc1ccccc1N2CC1CN2CCC1CC2 (stereo not drawn) [MEQUITAZINE] | 7.76 µM | 7.76 µM | 7.76 µM | 7.76 µM | > 100 µM | > 100 µM | – | –
CN1CCC(CN2c3ccccc3Sc3ccccc32)C1 (stereo not drawn) [METHDILAZINE] | 16.2 µM | 16.2 µM | 14.8 µM | 14.8 µM | > 100 µM | > 100 µM | – | –
CN1CCCC(CC2c3ccccc3Sc3ccccc32)C1 (stereo not drawn) [METHIXENE] | 9.55 µM | 9.55 µM | 10.1 µM | 10 µM | > 100 µM | > 100 µM | – | –
COc1ccc2c(c1)N(CCCN(C)C)c1ccccc1S2 [METHOXYPROMAZINE] | > 20 µM | > 20 µM | 14.1 µM | 14.1 µM | > 100 µM | > 100 µM | – | –
CCC1(CC)C(=O)NCC(C)C1=O (stereo not drawn) [METHYPRYLON] | 18.4 µM | 18.2 µM | > 25.1 µM | > 25.1 µM | > 25.1 µM | > 25.1 µM | – | –
COc1cc(C(=O)OCCN2CCN(CCCN3c4ccccc4Sc4ccc(Cl)cc43)CC2)cc(OC)c1OC [METOFENAZATE] | 18.6 µM | 18.6 µM | > 100 µM | > 100 µM | > 100 µM | > 100 µM | – | –
O=C(c1ccc(F)cc1)C1CCN(CCCn2c(=O)[nH]c3cc(Cl)ccc32)CC1 [MILENPERONE] | > 100 µM | > 100 µM | 32.4 µM | 32.4 µM | > 100 µM | > 100 µM | – | –
COc1ccc2cc(-c3cc(-c4cc(Cl)cc(Cl)c4)nn3[C@@H](C)c3ccc(C(=O)NCCC(=O)O)cc3)ccc2c1 [MK-0893] | > 100 µM | > 100 µM | ~18.8 µM | ~18.6 µM | > 100 µM | > 100 µM | – | –
NC(CO)(CO)CCc1ccc(Sc2cccc(OCc3ccccc3)c2)cc1Cl [MOCRAVIMOD] | 3.31 µM | 3.31 µM | 3.06 µM | 3.02 µM | > 100 µM | > 100 µM | – | –
O=C1NC2CCCCN2C12CCN(CCCN1c3ccccc3CCc3ccc(Cl)cc31)CC2 (stereo not drawn) [MOSAPRAMINE] | 7.41 µM | 7.41 µM | 8.13 µM | 8.13 µM | > 100 µM | > 100 µM | – | –
CCCCCCC(C)(C)c1cc(O)c2c(c1)OC(C)(C)C1CCC(=O)CC21 (stereo not drawn) [NABILONE] | 8.91 µM | 8.91 µM | 11.1 µM | 11 µM | > 25.1 µM | > 25.1 µM | – | –
COc1ccc2c(c1)CCC(c1ccccc1)=C2c1ccc(OCCN2CCCC2)cc1 [NAFOXIDINE] | > 100 µM | > 100 µM | 3.85 µM | 3.8 µM | > 100 µM | > 100 µM | – | –
CC1(C)CCC(c2ccc(Cl)cc2)=C(CN2CCN(c3ccc(C(=O)NS(=O)(=O)c4ccc(N[C@H](CCN5CCOCC5)CSc5ccccc5)c(S(=O)(=O)C(F)(F)F)c4)cc3)CC2)C1 [NAVITOCLAX] | > 100 µM | > 100 µM | 4.73 µM | 4.68 µM | > 100 µM | > 100 µM | – | –
CC(Cc1ccc(O)c(O)c1)C(C)Cc1ccc(O)c(O)c1 (stereo not drawn) [NORDIHYDROGUAIARETIC ACID] | > 100 µM | > 100 µM | 37.2 µM | 37.2 µM | > 100 µM | > 100 µM | – | –
CNCCC=C1c2ccccc2CCc2ccccc21 [NORTRIPTYLINE] | 15.9 µM | 15.8 µM | – | – | > 100 µM | > 100 µM | 24 µM | 24 µM

Compound | IC50 (SARS-CoV-2 [1]) | IC50 (SARS-CoV-2 [1]; read-out: pIC50 (converted)) | CC50 at 48 h (in vitro; [3]) | CC50 at 48 h (in vitro; [4]) | IC50 (SARS-CoV-2 [2]; read-out: IC50) | IC50 (SARS-CoV-2 [2]; read-out: pIC50 (converted)) | CC50 at 48 h (in vitro; vero c1008, CC50) | CC50 at 48 h (in vitro; vero c1008, pCC50)
CN(C)CCON=C1c2ccccc2CCc2ccccc21 [NOXIPTILINE] | 14.1 µM | 14.1 µM | 77.6 µM | 77.6 µM | > 100 µM | > 100 µM | – | –
Cc1[nH]c(/C=C2\C(=O)Nc3ccccc32)c(C)c1CCC(=O)O [ORANTINIB] | ~1.78 µM | ~1.78 µM | > 25.1 µM | > 25.1 µM | > 25.1 µM | > 25.1 µM | – | –
C=CC(=O)Nc1cc(Nc2nccc(-c3cn(C)c4ccccc34)n2)c(OC)cc1N(C)CCN(C)C [OSIMERTINIB] | > 100 µM | > 100 µM | 3.09 µM | 3.09 µM | > 100 µM | > 100 µM | – | –
CNCC(O)CC12CCC(c3ccccc31)c1ccccc12 (stereo not drawn) [OXAPROTILINE] | > 100 µM | > 100 µM | 28.2 µM | 28.2 µM | > 100 µM | > 100 µM | – | –
O=C(O)CCc1nc(-c2ccccc2)c(-c2ccccc2)o1 [OXAPROZIN] | 11.8 µM | 11.7 µM | > 50.1 µM | > 50.1 µM | > 50.1 µM | > 50.1 µM | – | –
O=c1[nH]c2ccccc2n1CCCN1CCN(C(c2ccccc2)c2ccccc2)CC1 [OXATOMIDE] | > 100 µM | > 100 µM | ~12.6 µM | ~12.6 µM | > 100 µM | > 100 µM | – | –
CN(C(=O)CN(CCO)CC(=O)N(C)C(C)(C)Cc1ccccc1)C(C)(C)Cc1ccccc1 [OXETHAZAINE] | 18.6 µM | 18.6 µM | 26.3 µM | 26.3 µM | > 100 µM | > 100 µM | – | –
N=C(N)c1ccc(C=C2c3ccccc3-c3ccccc32)cc1 [PARANYLINE] | 3.47 µM | 3.47 µM | 2.92 µM | 2.88 µM | > 100 µM | > 100 µM | – | –
Fc1ccc([C@@H]2CCNC[C@H]2COc2ccc3c(c2)OCO3)cc1 [PAROXETINE] | 15.1 µM | 15.1 µM | 16.6 µM | 16.6 µM | > 100 µM | > 100 µM | – | –
CC(C)(C)NC[C@H](O)COc1ccccc1C1CCCC1 [PENBUTOLOL] | 15.1 µM | 15.1 µM | 29.5 µM | 29.5 µM | 20 µM | 20 µM | – | –
OC1(c2ccc(Cl)c(C(F)(F)F)c2)CCN(CCCC(c2ccc(F)cc2)c2ccc(F)cc2)CC1 [PENFLURIDOL] | > 100 µM | > 100 µM | 3.59 µM | 3.55 µM | > 100 µM | > 100 µM | – | –
CN1CCN(CCCN2c3ccccc3Sc3ccccc32)CC1 [PERAZINE] | 14 µM | 13.8 µM | 14.6 µM | 14.5 µM | > 100 µM | > 100 µM | – | –
N#Cc1ccc2c(c1)N(CCCN1CCC(O)CC1)c1ccccc1S2 [PERICIAZINE] | > 20 µM | > 20 µM | 12.7 µM | 12.6 µM | > 100 µM | > 100 µM | – | –
CN1CCC(=C2c3ccccc3Sc3ccccc32)CC1 [PIMETHIXENE] | > 100 µM | > 100 µM | 25.7 µM | 25.7 µM | > 100 µM | > 100 µM | – | –
Cc1c(-c2ccc(O)cc2)n(Cc2ccc(OCCN3CCCCC3)cc2)c2ccc(O)cc12 [PIPENDOXIFENE] | 3.63 µM | 3.63 µM | 4.62 µM | 4.57 µM | > 6.31 µM | > 6.31 µM | – | –
CC(=O)c1ccc2c(c1)N(CCCN1CCC(CCO)CC1)c1ccccc1S2 [PIPERACETAZINE] | 16.2 µM | 16.2 µM | 12.2 µM | 12 µM | > 12.6 µM | > 12.6 µM | – | –
COc1cc(/C=C/C(=O)N2CCC=CC2=O)cc(OC)c1OC [PIPLARTINE] | > 50.1 µM | > 50.1 µM | 9.55 µM | 9.55 µM | > 50.1 µM | > 50.1 µM | – | –
CN(C)S(=O)(=O)c1ccc2c(c1)N(CCCN1CCC(CCO)CC1)c1ccccc1S2 [PIPOTIAZINE] | 13.8 µM | 13.8 µM | – | 7.24 µM | > 100 µM | > 100 µM | – | –
Cc1ccc(C(=O)Nc2ccc(CN3CCN(C)CC3)c(C(F)(F)F)c2)cc1C#Cc1cnc2cccnn12 [PONATINIB] | > 100 µM | > 100 µM | 0.989 µM | 0.977 µM | > 100 µM | > 100 µM | – | –
